Measurements: the supplement of paper PMC10307832

Columns and labels:
Assay in all cases: relative viability (nuclei count vs DMSO), 5 days (fraction); higher = more cells survive
[1] = compound: Cc1cnc(CNC(=O)c2c(=O)c3ccc(N4CCCN(C)CC4)nc3n3c2sc2ccccc23)cn1 [CX-5461] + C[C@@H](Oc1cc(-c2cnn(C3CCNCC3)c2)cnc1N)c1c(Cl)ccc(F)c1Cl [Crizotinib] (partner 1 µM)
Procedure, shortened: (§1)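 Five library-drug doses in √10 steps were combined with a fixed anchor-drug dose, or a single drug was given alone, by pin tool to lung cancer cell lines in 1536-well plates the day after seeding. Nuclei were stained and counted after 5 days. Relative viability is the nuclei count in treated wells over that in vehicle wells, taken as the median of duplicate plates.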

[2] = compound: Cc1cnc(CNC(=O)c2c(=O)c3ccc(N4CCCN(C)CC4)nc3n3c2sc2ccccc23)cn1 [CX-5461] + C[C@]1(O)C[C@@H](c2nc(-c3ccc4ccc(-c5ccccc5)nc4c3)c3c(N)nccn32)C1 [Linsitinib] (partner 1 µM)
Procedure, shortened: as §1

[3] = compound: O=C(Nc1cc(C(F)(F)F)cc(C(F)(F)F)c1)c1cc(Cl)ccc1O [IMD-0354] + CC(=O)c1c(C)c2cnc(Nc3ccc(N4CCNCC4)cn3)nc2n(C2CCCC2)c1=O [Palbociclib] (partner 0.5 µM)
Procedure, shortened: as §1

[4] = compound: O=C(Nc1cc(C(F)(F)F)cc(C(F)(F)F)c1)c1cc(Cl)ccc1O [IMD-0354] + Nc1ncn([C@H]2C[C@H](O)[C@@H](CO)O2)c(=O)n1 [Decitabine] (partner 2 µM)
Procedure, shortened: as §1

Row | Cell Line | relative viability ([1]; first compound 0.01 µM) | relative viability ([1]; first compound 0.03162 µM) | relative viability ([1]; first compound 0.1 µM) | relative viability ([1]; first compound 0.3162 µM) | relative viability ([1]; first compound 1 µM) | relative viability ([2]; first compound 0.03162 µM) | relative viability ([2]; first compound 0.3162 µM) | relative viability ([2]; first compound 1 µM) | relative viability ([3]; first compound 0.04 µM) | relative viability ([3]; first compound 0.1265 µM) | relative viability ([3]; first compound 0.4 µM) | relative viability ([3]; first compound 1.265 µM) | relative viability ([3]; first compound 4 µM) | relative viability ([4]; first compound 0.04 µM) | relative viability ([4]; first compound 0.1265 µM) | relative viability ([4]; first compound 0.4 µM) | relative viability ([4]; first compound 1.265 µM) | relative viability ([4]; first compound 4 µM) | relative viability ([2]; first compound 0.01 µM) | relative viability ([2]; first compound 0.1 µM)
1 | NCI-H1651 | 0.829 | 0.862 | 0.76 | 0.967 | 0.812 | 0.755 | 0.714 | 0.11 | 0.504 | 0.507 | 0.415 | 0.516 | 0.182 | 0.667 | 0.638 | 0.528 | 0.156 | 0.147 | – | –
2 | NCI-H1666 | 1.03 | 0.838 | – | 1 | 0.618 | 0.982 | 0.82 | 0.459 | 0.737 | 0.616 | 0.601 | 0.57 | 0.495 | 0.718 | 0.751 | 0.716 | 0.531 | 0.393 | 0.787 | –
3 | NCI-H1734 | 0.666 | 0.82 | 0.742 | 0.536 | 0.623 | 0.97 | 0.772 | 0.868 | 0.352 | 0.352 | 0.314 | 0.232 | 0.196 | 0.513 | 0.491 | 0.467 | 0.389 | 0.213 | 1.01 | 0.901
4 | NCI-H1755 | 0.921 | 0.937 | 0.895 | 0.842 | 0.833 | 1.05 | 0.993 | 1.01 | 0.448 | 0.456 | 0.419 | 0.396 | 0.224 | 0.798 | 0.741 | 0.671 | 0.644 | 0.316 | 0.983 | 0.968
5 | NCI-H1792 | 0.957 | 0.979 | 0.949 | 0.978 | 0.913 | 0.58 | 0.565 | 0.545 | 0.69 | 0.61 | 0.258 | 0.579 | 0.431 | 0.675 | 0.38 | 0.387 | 0.358 | 0.174 | 0.54 | 0.485
6 | NCI-H1915 | 0.937 | 0.934 | 0.892 | 0.888 | 0.902 | 1.13 | 1.12 | 1.16 | 0.461 | 0.489 | 0.424 | 0.234 | 0.143 | 0.299 | 0.267 | 0.224 | 0.25 | 0.169 | 1.1 | 1.12
7 | NCI-H1944 | 1.16 | 1.38 | 1.18 | – | 1.05 | 1.26 | – | 1.18 | 0.289 | 0.324 | 0.341 | 0.382 | 0.139 | 0.44 | 0.451 | 0.398 | 0.473 | 0.147 | 1.27 | 1.05
8 | NCI-H1975 | 1.13 | 0.986 | 0.821 | 1.08 | 0.462 | 0.983 | 1 | 0.629 | 0.752 | 0.569 | 0.306 | 0.165 | 0.178 | 0.389 | 0.409 | 0.36 | 0.2 | 0.21 | 1.06 | 0.784
9 | NCI-H1993 | 0.972 | 0.819 | 0.862 | 0.822 | 0.825 | 0.681 | 0.712 | 0.643 | 0.657 | 0.384 | 0.501 | 0.443 | 0.406 | 0.682 | 0.658 | 0.516 | 0.458 | 0.367 | 0.743 | 0.722
10 | NCI-H2009 | 1.07 | 1.02 | 1.09 | 1.02 | 0.697 | 1.14 | 1.19 | 0.804 | 0.179 | 0.222 | 0.191 | 0.103 | 0.112 | 0.374 | 0.408 | 0.288 | 0.18 | 0.134 | 1.24 | 1.18
11 | NCI-H2023 | 0.584 | 0.558 | – | 0.391 | 0.0858 | 0.744 | 0.599 | 0.162 | 0.495 | 0.346 | 0.273 | 0.316 | 0.241 | 0.262 | 0.222 | 0.167 | 0.0889 | 0.0963 | 0.661 | –
12 | NCI-H2085 | 0.908 | 0.951 | 0.833 | 0.785 | 0.555 | 1.03 | 0.952 | 0.864 | 0.461 | 0.439 | 0.433 | 0.281 | 0.393 | 0.59 | 0.516 | 0.551 | 0.421 | 0.337 | 0.923 | 0.911
13 | NCI-H2087 | 0.989 | 0.969 | 0.874 | 0.813 | 0.593 | 0.999 | 0.811 | 1.05 | 0.238 | 0.196 | 0.21 | 0.104 | 0.0948 | 0.258 | 0.276 | 0.188 | 0.111 | 0.0967 | 1.03 | 0.946
14 | NCI-H2126 | 1.05 | 1.11 | 1.08 | 1.07 | 0.975 | 0.727 | 0.731 | 0.679 | 0.35 | 0.361 | 0.364 | 0.316 | 0.311 | 0.526 | 0.59 | 0.641 | 0.594 | 0.306 | 0.728 | 0.71
15 | NCI-H2347 | 0.446 | 0.696 | 0.674 | 0.687 | 0.523 | 1.03 | 0.582 | 0.795 | 0.39 | 0.418 | 0.362 | 0.41 | 0.405 | 0.546 | 0.653 | 0.483 | 0.491 | 0.323 | 0.963 | 1.04
16 | NCI-H2405 | 0.827 | 0.949 | 0.843 | 0.549 | 0.821 | 0.898 | 0.897 | 0.757 | 0.594 | 0.509 | 0.457 | 0.282 | 0.261 | 0.883 | 0.801 | 0.636 | 0.294 | 0.347 | 1.03 | 0.993
